Values joined by “and” are separate entries in the source; they are usually repeats but may differ in a detail not shown here. Equal values may be shown once. Values belong to the compound of their own block, whether it stands above or below them.
Tested on: 242566-281-R-J2-PDC complex spheroid viability
Experiment: Anticancer human tumor 242566-281-R-J2-PDC patient-derived pancreatic carcinoma cell line growth inhibition [CLK]
Settings: for viability, T/C: stronger effect = lower value
Summary of the method: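 Patient-derived tumor cells grown as complex spheroids with HUVEC endothelial cells and mesenchymal stem cells, treated with drug combinations. Concentrations descend in half-log steps from near clinical Cmax, or from 10 microM if Cmax unknown.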

[1] = curve of first compound, second compound 0.0316 µM
[2] = curve of first compound, second compound 0.1 µM
[3] = curve of first compound, second compound 0.316 µM
[4] = curve of first compound, second compound 1 µM
[5] = curve of first compound, second compound 3.16 µM
[6] = curve of first compound, second compound 10 µM
[7] = second compound 0.0316 µM, first compound 0.0316 µM
[8] = second compound 0.0316 µM, first compound 0.1 µM
[9] = second compound 0.0316 µM, first compound 0.316 µM
[10] = second compound 0.0316 µM, first compound 1 µM
[11] = second compound 0.0316 µM, first compound 3.16 µM
[12] = second compound 0.0316 µM, first compound 10 µM
[13] = second compound 0.1 µM, first compound 0.0316 µM
[14] = second compound 0.1 µM, first compound 0.1 µM
[15] = second compound 0.1 µM, first compound 0.316 µM
[16] = second compound 0.1 µM, first compound 1 µM
[17] = second compound 0.1 µM, first compound 3.16 µM
[18] = second compound 0.1 µM, first compound 10 µM
[19] = second compound 0.316 µM, first compound 0.0316 µM
[20] = second compound 0.316 µM, first compound 0.1 µM
[21] = second compound 0.316 µM, first compound 0.316 µM
[22] = second compound 0.316 µM, first compound 1 µM
[23] = second compound 0.316 µM, first compound 3.16 µM
[24] = second compound 0.316 µM, first compound 10 µM
[25] = second compound 1 µM, first compound 0.0316 µM
[26] = second compound 1 µM, first compound 0.1 µM
[27] = second compound 1 µM, first compound 0.316 µM
[28] = second compound 1 µM, first compound 1 µM
[29] = second compound 1 µM, first compound 3.16 µM
[30] = second compound 1 µM, first compound 10 µM
[31] = second compound 3.16 µM, first compound 0.0316 µM
[32] = second compound 3.16 µM, first compound 0.1 µM
[33] = second compound 3.16 µM, first compound 0.316 µM
[34] = second compound 3.16 µM, first compound 1 µM
[35] = second compound 3.16 µM, first compound 3.16 µM
[36] = second compound 3.16 µM, first compound 10 µM
[37] = second compound 10 µM, first compound 0.0316 µM
[38] = second compound 10 µM, first compound 0.1 µM
[39] = second compound 10 µM, first compound 0.316 µM
[40] = second compound 10 µM, first compound 1 µM
[41] = second compound 10 µM, first compound 3.16 µM
[42] = second compound 10 µM, first compound 10 µM
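Note: spheroids exposed to compounds for 7 days before readout.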
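Throughout, for viability, T/C: 100% = DMSO vehicle control wells.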

Structure (SMILES): COc1cccc2c1C(=O)c1c(O)c3c(c(O)c1C2=O)CC(O)(C(=O)CO)CC3OC1CC(N)C(O)C(C)O1 (centres undefined) + CNC(=O)c1ccc(Nc2nc(OC3CCCC3)c3c(-c4ccc5nc(C)oc5c4)c[nH]c3n2)c(OC)c1
IC50 [1]: 185 nM
IC50 [2]: 159 nM
IC50 [3]: 102 nM
IC50 [4]: 31.7 nM
IC50 [5]: < 31.6 nM
IC50 [6]: < 31.6 nM
viability, T/C [7]: 86.6%
viability, T/C [8]: 64.8%
viability, T/C [9]: 37%
viability, T/C [10]: 16.4%
viability, T/C [11]: 6.4%
viability, T/C [12]: 1.62%
viability, T/C [13]: 86.8%
viability, T/C [14]: 64.7%
viability, T/C [15]: 27.8%
viability, T/C [16]: 16%
viability, T/C [17]: 6.66%
viability, T/C [18]: 1.48%
viability, T/C [19]: 80.4%
viability, T/C [20]: 51.2%
viability, T/C [21]: 15.9%
viability, T/C [22]: 10.4%
viability, T/C [23]: 1.13%
viability, T/C [24]: 1.75%
viability, T/C [25]: 50.1%
viability, T/C [26]: 20.2%
viability, T/C [27]: 6.31%
viability, T/C [28]: 2.71%
viability, T/C [29]: 1.6%
viability, T/C [30]: 1.45%
viability, T/C [31]: 37.1%
viability, T/C [32]: 11.2%
viability, T/C [33]: 3.77%
viability, T/C [34]: 1.91%
viability, T/C [35]: 1.71%
viability, T/C [36]: 1.85%
viability, T/C [37]: 31.5%
viability, T/C [38]: 10.5%
viability, T/C [39]: 3.98%
viability, T/C [40]: 1.91%
viability, T/C [41]: 1.68%
viability, T/C [42]: 2.07%

Structure (SMILES): Nc1ccccc1NC(=O)c1ccc(CNC(=O)OCc2cccnc2)cc1 + CNC(=O)c1ccc(Nc2nc(OC3CCCC3)c3c(-c4ccc5nc(C)oc5c4)c[nH]c3n2)c(OC)c1
IC50 [1]: 7700 nM
IC50 [2]: 7540 nM
IC50 [3]: 5800 nM
IC50 [4]: 2700 nM
IC50 [5]: 1670 nM
IC50 [6]: < 31.6 nM
viability, T/C [7]: 86.9%
viability, T/C [8]: 101%
viability, T/C [9]: 101%
viability, T/C [10]: 149%
viability, T/C [11]: 116%
viability, T/C [12]: 32.2%
viability, T/C [13]: 81.1%
viability, T/C [14]: 104%
viability, T/C [15]: 103%
viability, T/C [16]: 128%
viability, T/C [17]: 109%
viability, T/C [18]: 32.1%
viability, T/C [19]: 89.6%
viability, T/C [20]: 78%
viability, T/C [21]: 85.6%
viability, T/C [22]: 94.7%
viability, T/C [23]: 80.8%
viability, T/C [24]: 22.2%
viability, T/C [25]: 75.7%
viability, T/C [26]: 70.2%
viability, T/C [27]: 61.8%
viability, T/C [28]: 73.4%
viability, T/C [29]: 46.8%
viability, T/C [30]: 14%
viability, T/C [31]: 60.4%
viability, T/C [32]: 52.9%
viability, T/C [33]: 52.5%
viability, T/C [34]: 63.9%
viability, T/C [35]: 40.5%
viability, T/C [36]: 10.3%
viability, T/C [37]: 50%
viability, T/C [38]: 44.4%
viability, T/C [39]: 48.6%
viability, T/C [40]: 54%
viability, T/C [41]: 37.6%
viability, T/C [42]: 7.66%

Structure (SMILES): Nc1ccccc1NC(=O)c1ccc(CNC(=O)OCc2cccnc2)cc1 + CN1CCN(c2cc(C(=O)Nc3cc4cc(-c5cnn(C)c5)ccc4cn3)ccn2)CC1
IC50 [1]: 2690 nM
IC50 [2]: 1540 nM
IC50 [3]: < 31.6 nM
IC50 [4]: < 31.6 nM
IC50 [5]: < 31.6 nM
IC50 [6]: < 31.6 nM
viability, T/C [7]: 95.9%
viability, T/C [8]: 96.1%
viability, T/C [9]: 84.2%
viability, T/C [10]: 83.5%
viability, T/C [11]: 44.2%
viability, T/C [12]: 10.9%
viability, T/C [13]: 92.5%
viability, T/C [14]: 82.8%
viability, T/C [15]: 70.5%
viability, T/C [16]: 65.8%
viability, T/C [17]: 31.6%
viability, T/C [18]: 5.31%
viability, T/C [19]: 28.3%
viability, T/C [20]: 29.4%
viability, T/C [21]: 28.4%
viability, T/C [22]: 20.9%
viability, T/C [23]: 6.85%
viability, T/C [24]: 0.46%
viability, T/C [25]: 4.47%
viability, T/C [26]: 4.78%
viability, T/C [27]: 4.55%
viability, T/C [28]: 3.08%
viability, T/C [29]: 2.04%
viability, T/C [30]: 1.1%
viability, T/C [31]: 9.27%
viability, T/C [32]: 7.2%
viability, T/C [33]: 7.84%
viability, T/C [34]: 6.26%
viability, T/C [35]: 5.4%
viability, T/C [36]: 3.16%
viability, T/C [37]: 2.19%
viability, T/C [38]: 1.81%
viability, T/C [39]: 1.73%
viability, T/C [40]: 2.14%
viability, T/C [41]: 1.57%
viability, T/C [42]: 0.86%

Structure (SMILES): O=c1[nH]cc(F)c(=O)[nH]1 + CN1CCN(c2cc(C(=O)Nc3cc4cc(-c5cnn(C)c5)ccc4cn3)ccn2)CC1
IC50 [1]: > 10000 nM
IC50 [2]: 5960 nM
IC50 [3]: < 31.6 nM
IC50 [4]: < 31.6 nM
IC50 [5]: < 31.6 nM
IC50 [6]: < 31.6 nM
viability, T/C [7]: 109%
viability, T/C [8]: 101%
viability, T/C [9]: 103%
viability, T/C [10]: 77%
viability, T/C [11]: 61.4%
viability, T/C [12]: 56.1%
viability, T/C [13]: 97.8%
viability, T/C [14]: 81.2%
viability, T/C [15]: 81.7%
viability, T/C [16]: 69.8%
viability, T/C [17]: 54.8%
viability, T/C [18]: 44.9%
viability, T/C [19]: 38.5%
viability, T/C [20]: 35.3%
viability, T/C [21]: 30.8%
viability, T/C [22]: 25.4%
viability, T/C [23]: 24.9%
viability, T/C [24]: 18.9%
viability, T/C [25]: 4.56%
viability, T/C [26]: 4.75%
viability, T/C [27]: 3.93%
viability, T/C [28]: 4.22%
viability, T/C [29]: 3.79%
viability, T/C [30]: 3.85%
viability, T/C [31]: 7.11%
viability, T/C [32]: 6.79%
viability, T/C [33]: 6.18%
viability, T/C [34]: 6.26%
viability, T/C [35]: 5.72%
viability, T/C [36]: 5.29%
viability, T/C [37]: 1.55%
viability, T/C [38]: 1.68%
viability, T/C [39]: 1.19%
viability, T/C [40]: 1.49%
viability, T/C [41]: 1.43%
viability, T/C [42]: 1.2%

More lines, main results first:

IC50 (curve of compound): 13.4 nM and 16.9 nM
Structure (SMILES): CCc1c2c(nc3ccc(O)cc13)-c1cc3c(c(=O)n1C2)COC(=O)[C@]3(O)CC
viability, T/C (compound 0.00316 µM): 87.2% and 108%
viability, T/C (compound 0.01 µM): 56.3% and 60%
viability, T/C (compound 0.0316 µM): 30.8% and 39%
viability, T/C (compound 0.1 µM): 12.3% and 15.7%
viability, T/C (compound 0.316 µM): 5.72% and 5.99%
viability, T/C (compound 1 µM): 2.95% and 2.38%

IC50 (curve of compound): 66.6 nM and 183 nM
Structure (SMILES): COc1cccc2c1C(=O)c1c(O)c3c(c(O)c1C2=O)CC(O)(C(=O)CO)CC3OC1CC(N)C(O)C(C)O1 (centres undefined)
viability, T/C (compound 0.0316 µM): 66.3% and 79%
viability, T/C (compound 0.1 µM): 41.5% and 64.7%
viability, T/C (compound 0.316 µM): 15.3% and 35.8%
viability, T/C (compound 1 µM): 7.56% and 20.2%
viability, T/C (compound 3.16 µM): 1.88% and 6.69%
viability, T/C (compound 10 µM): 1.33% and 1.37%

IC50 [1]: > 10000 nM
IC50 [2]: > 10000 nM
IC50 [3]: > 10000 nM
IC50 [4]: > 10000 nM
IC50 [5]: > 10000 nM
IC50 [6]: > 10000 nM
Structure (SMILES): CC(CO)NC(=O)c1cc(-c2ccc(Cl)cc2)nn(-c2cnn(C)c2)c1=O (centres undefined) + CNC(=O)c1ccc(Nc2nc(OC3CCCC3)c3c(-c4ccc5nc(C)oc5c4)c[nH]c3n2)c(OC)c1
viability, T/C [7]: 112%
viability, T/C [8]: 105%
viability, T/C [9]: 103%
viability, T/C [10]: 124%
viability, T/C [11]: 110%
viability, T/C [12]: 104%
viability, T/C [13]: 105%
viability, T/C [14]: 107%
viability, T/C [15]: 93%
viability, T/C [16]: 102%
viability, T/C [17]: 103%
viability, T/C [18]: 96.3%
viability, T/C [19]: 96.1%
viability, T/C [20]: 90.7%
viability, T/C [21]: 83.1%
viability, T/C [22]: 95.9%
viability, T/C [23]: 101%
viability, T/C [24]: 86%
viability, T/C [25]: 76%
viability, T/C [26]: 65%
viability, T/C [27]: 75.6%
viability, T/C [28]: 79.2%
viability, T/C [29]: 86.2%
viability, T/C [30]: 89.4%
viability, T/C [31]: 60.1%
viability, T/C [32]: 62.5%
viability, T/C [33]: 59.1%
viability, T/C [34]: 58.9%
viability, T/C [35]: 63%
viability, T/C [36]: 69.2%
viability, T/C [37]: 55.6%
viability, T/C [38]: 55.8%
viability, T/C [39]: 54.1%
viability, T/C [40]: 58.8%
viability, T/C [41]: 62.7%
viability, T/C [42]: 70.2%

From PubChem BioAssay AID2060622 (Molecular Pharmacology Branch, DTP, NCI, 2025)
